According to patent publication US9340790B2, “Method for constructing recombinant bacterium for producing non-native protein, and utilization of same” (RIKEN, priority 2010, dated 2016):
Several values for one entry are separate records, joined by “and”; a condition that tells them apart may be missing. Identical values can stand only once.

Key:
Format in all cases: cell-based, Escherichia coli
BW25113RFzero-iy strain = details: LB liquid culture medium with the non-natural amino acid added, shaking at 37° C. overnight
Description: First, a minute amount of glycerol stock of a BW25113RFzero-iy strain was added to (i) an LB liquid culture medium and (ii) an LB liquid culture medium to which 3-iodotyrosine (IY), 3-bromotyrosine (BrY) or 3-chlorotyrosine (CIY) had been added, and incubated with shaking at 37° C. overnight. In this way, the growth of the BW25113RFzero-iy strain was examined.

[1] = tested on: RFzero-iy strains (BW25113RFzero-iy, HMS174RFzero-iy, BL21RFzero-iy); assay: Dependence of growth on 3-iodotyrosine, spotting on non-selective LB culture medium; details: non-selective LB culture medium with or without 3-iodotyrosine
Description: Furthermore, how much the growth of each of the RFzero-iy strains depends on non-natural amino acids was checked. A cell culture having been incubated overnight was diluted, the diluted culture was spotted on (i) a non-selective LB culture medium containing 3-iodotyrosine and (ii) a non-selective LB culture medium containing no 3-iodotyrosine. The media were further incubated. […] This is consistent with the fact that UAG translation activity is necessary in a cell to avoid lethality caused by prfA knockout.

BW25113 (prfA+ strain) = assay: Efficiency of non-natural amino acid introduction at UAG codon in prfA+ strain (western blotting, TRX-GST fusion); details: prfA+ condition, compared with 3-iodotyrosine
Description: In this experiment, a GST gene containing a UAG codon near the N terminal was introduced, together with an expression unit for introducing a non-natural amino acid, into BW25113 which was a prfA^+ strain. Then, the efficiency of translation was checked. The GST gene containing a UAG codon near the N terminal is incorporated in a plasmid so that a fusion protein of the GST and thioredoxin (TRX) is produced (refer to (a) of FIG. 31). The result is shown in (b) of FIG. 31. […] The strain shown in Lane 1 contains no construct that introduces a non-natural amino acid. As is clear from Lanes 4 to 6, strains into each of which a construct for assigning a UAG codon to 3-iodotyrosine, 4-azidophenylalanine or o-sulfotyrosine has been introduced generate total-length fusion proteins in the presence of corresponding non-natural amino acids (see arrow A in (b) of FIG. 31). Further, in these strains, proteins resulting from termination of translation at the UAG codon were also produced (see arrow B in (b) of FIG. 31). The number in parentheses below each lane indicates the percentage (%) of total-length fusion protein with respect to the sum of the proteins resulting from termination of translation and the full-length fusion protein thus produced. That is, the number indicates the efficiency of non-natural amino acid introduction at the UAG codon. […]

RFzero-q3 strain = assay: Chloramphenicol (Cm) resistance of cat(13Am) transformant; details: RFzero-q3 strain with cat(13Am); listed as Cm
Description: (§1) In order to examine if the UAG translation efficiency was improved, a cat(13Am) in which all 13 of the glutamine codons on the cat gene were replaced with UAG was introduced into the RFzero-q3 and RFzero-q7 strains, respectively. […] This was lower than Cm resistance (400 μg/ml) in the HST08 and RFzero-q strains transformed with pACYC184 carrying the wild-type cat gene.

RFzero-q7 strain = assay: as above; details: RFzero-q7 strain with cat(13Am)
Description: as §1

RFzero-q strain = assay: Chloramphenicol (Cm) resistance of cat transformants
Description: In order to confirm that the RFzero-q strain allows insertion of a glutamic acid at an amber codon, the RFzero-q strain was transformed with a mutated gene which codes for chloramphenicol acetyltransferase (cat), in which mutated gene there are three amber codons in ORF (such a mutated gene is referred to as cat(3Am)). […] The “X”s in the amino acid sequence shown in (a) of FIG. 5 indicate the positions of amber codons of the cat(3Am), and are glutamic acids in the case of the RFzero-q strain (SEQ ID NO: 17).
(§2) Furthermore, a RFzero-q strain was transformed with a mutated gene which codes for cat, and in which mutated gene there are ten amber codons in ORF (such a mutated gene is referred to as cat(10Am)). […] The “X”s in the amino acid sequence shown in (b) of FIG. 5 indicate positions of amber codons of the cat(10Am), and are glutamic acids in the case of the RFzero-q strain (SEQ ID NO: 18).
as §1

HST08 = assay: as above
Description: as §2, §1

`N[C@@H](Cc1ccc(O)c(Cl)c1)C(=O)O` [ClY, 3-chlorotyrosine] gave an OD600 (BW25113RFzero-iy strain) of 1.41.
With `N[C@@H](Cc1ccc(O)c(I)c1)C(=O)O` [IY, 3-iodotyrosine] the “Dependence of growth on the non-natural amino acid” value [1] was “totally depended on the presence of 3-iodotyrosine” and the OD600 (BW25113RFzero-iy strain) was 1.36.
With `[N-]=[N+]=Nc1ccc(C[C@H](N)C(=O)O)cc1` [AzF, 4-azidophenylalanine] the “Efficiency of non-natural amino acid introduction at the UAG codon” value (BW25113 (prfA+ strain)) was “lower efficiency than 3-iodotyrosine”.
For `O=C(N[C@H](CO)[C@H](O)c1ccc([N+](=O)[O-])cc1)C(Cl)Cl` [chloramphenicol], the Cm resistance (RFzero-q3 strain) was 200 µg/mL and ~400 µg/mL, the Cm resistance (RFzero-q7 strain) was 200 µg/mL and the “Cm resistance (chloramphenicol concentration in culture medium up to which resistance was shown)” value (RFzero-q strain; RFzero-q strain transformed with cat(3Am)) was 400 µg/mL. For the same compound, the “Cm resistance (chloramphenicol concentration in culture medium up to which resistance was shown)” value (RFzero-q strain; RFzero-q strain transformed with cat(10Am)) was 200 µg/mL, the Cm resistance (RFzero-q strain; RFzero-q strain transformed with pACYC184 carrying the wild-type cat gene) was 400 µg/mL and the “Cm resistance (chloramphenicol concentration in culture medium up to which resistance was shown)” value (RFzero-q strain; RFzero-q strain transformed with wild-type cat) was 400 µg/mL. The “Cm concentration at which the strain did not grow” value (HST08; HST08 into which cat(10Am) had been introduced) was < 10 µg/mL and the Cm resistance (HST08; HST08 transformed with pACYC184 carrying the wild-type cat gene) was 400 µg/mL.
`N[C@@H](Cc1ccc(O)c(Br)c1)C(=O)O` [BrY, 3-bromotyrosine] showed an OD600 (BW25113RFzero-iy strain) of 1.39.
